According to patent publication US20250353891A1 (MEDIMMUNE LIMITED, priority 2022, published 2025):
Starred links: 1 amine or outer side, 2 acyl side, 3 side chain; linkers in the order of their positions; H or OH if unused. Non-standard residues stand in square brackets, D forms with d. Residues, ends and D or L forms follow the SMILES beside them. Groups on a side chain read outwards from the residue. *: point of attachment. C20 diacid = O=C(O)CCCCCCCCCCCCCCCCCCC(=O)*; C18 diacid = O=C(O)CCCCCCCCCCCCCCCCC(=O)*; γGlu = O=C(O)[C@H](CCC(=O)[*:2])N[*:1]; αMeF = C[C@](N)(Cc1ccccc1)C(=O)O; AEEA = NCCOCCOCC(=O)O; Aib = CC(C)(N)C(=O)O

What was measured:
[1] = target: human GLP-1 receptor (hGLP-1R) (Homo sapiens, UniProt P43220); experiment: cAMP production (HTRF) in CHO cells expressing hGLP-1R; format: cell-based; parameters: expressed in transfected cells; settings: for EC50: Table 6, peptides modified at position 17, cAMP in CHO hGLP-1R cells, geometric mean, read-out: hGLP-1R EC50; for % Relative Potency Ratio: Table 6, % GLP-1R activity relative to GLP-1 / % GlucR activity relative to glucagon
Summary of the method: (§1)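 Potency values represent EC50 from 4-parameter logistic curves of HTRF % Delta F signal. Receptor-expressing CHO cells (hGCGR 2×10^5 cells/mL, hGLP-1R 1×10^5 cells/mL) were exposed for 30 min at room temperature before two-step cAMP detection.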

[2] = target: human glucagon receptor (hGCGR) (Homo sapiens, UniProt P47871); experiment: cAMP production (HTRF) in CHO cells expressing hGCGR; format: cell-based; parameters: expressed in transfected cells; settings: Table 6, peptides modified at position 17; cAMP in CHO hGCGR cells; geometric mean; read-out: hGluc-R EC50
Summary of the method: as §1

Sequence of human GLP-1 receptor (hGLP-1R) (P43220 24-463): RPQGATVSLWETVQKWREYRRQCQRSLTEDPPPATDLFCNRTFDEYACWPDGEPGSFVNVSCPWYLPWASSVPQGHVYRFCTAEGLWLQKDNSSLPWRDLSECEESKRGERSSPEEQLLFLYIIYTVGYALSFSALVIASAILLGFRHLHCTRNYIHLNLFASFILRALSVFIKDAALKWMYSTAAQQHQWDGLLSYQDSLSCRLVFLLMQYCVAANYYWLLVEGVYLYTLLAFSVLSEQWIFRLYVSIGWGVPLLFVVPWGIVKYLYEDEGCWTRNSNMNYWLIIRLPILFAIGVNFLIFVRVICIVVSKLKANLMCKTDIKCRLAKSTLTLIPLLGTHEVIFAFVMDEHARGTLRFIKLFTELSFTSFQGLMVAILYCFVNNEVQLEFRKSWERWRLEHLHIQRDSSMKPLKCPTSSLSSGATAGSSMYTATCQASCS
Sequence of human glucagon receptor (hGCGR) (P47871 26-477): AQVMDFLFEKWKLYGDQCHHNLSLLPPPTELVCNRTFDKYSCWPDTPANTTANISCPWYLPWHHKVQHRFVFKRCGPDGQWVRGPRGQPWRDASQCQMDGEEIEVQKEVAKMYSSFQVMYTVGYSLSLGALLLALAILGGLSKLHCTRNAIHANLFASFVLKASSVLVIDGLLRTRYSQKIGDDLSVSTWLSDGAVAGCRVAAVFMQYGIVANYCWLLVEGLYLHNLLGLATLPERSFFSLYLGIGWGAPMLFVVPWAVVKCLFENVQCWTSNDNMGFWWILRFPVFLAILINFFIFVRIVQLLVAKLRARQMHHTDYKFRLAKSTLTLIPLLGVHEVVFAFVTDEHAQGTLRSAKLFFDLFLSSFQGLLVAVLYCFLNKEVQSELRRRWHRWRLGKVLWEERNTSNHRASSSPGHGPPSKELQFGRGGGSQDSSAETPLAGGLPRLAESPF

Row | EC50 [1] [nM] | % Relative Potency Ratio [1] | EC50 [2] [nM] | SMILES
1 | 0.176 | 1.3 | 0.118 | CC(C)C[C@H](NC(=O)[C@H](Cc1c[nH]c2ccccc12)NC(=O)[C@H](CCCNC(=N)N)NC(=O)[C@@H](NC(=O)[C@H](Cc1ccccc1)NC(=O)[C@H](CC(=O)O)NC(=O)[C@H](CCCNC(=N)N)NC(=O)[C@H](C)NC(=O)[C@H](CCCNC(=N)N)NC(=O)[C@H](CCCCNC(=O)COCCOCCNC(=O)COCCOCCNC(=O)CC[C@H](NC(=O)CCCCCCCCCCCCCCCCCCC(=O)O)C(=O)O)NC(=O)[C@@H](NC(=O)[C@H](CC(=O)O)NC(=O)[C@H](CC(C)C)NC(=O)[C@](C)(Cc1ccccc1)NC(=O)[C@H](CCCCN)NC(=O)[C@H](CO)NC(=O)[C@@H](NC(=O)[C@H](CC(=O)O)NC(=O)[C@H](CO)NC(=O)[C@@H](NC(=O)[C@H](Cc1ccccc1)NC(=O)[C@@H](NC(=O)CNC(=O)[C@H](CCC(N)=O)NC(=O)C(C)(C)NC(=O)[C@@H](N)Cc1c[nH]cn1)[C@@H](C)O)[C@@H](C)O)C(C)C)[C@@H](C)O)C(C)C)C(=O)N[C@@H](CC(C)C)C(=O)NC(C)(C)C(=O)N[C@@H](CCC(=O)O)C(=O)O [Peptide 510] (H-H[Aib]QGTFTSDVSK[αMeF]LDTK([AEEA-AEEA-γGlu-C20 diacid])RARDFVRWLL[Aib]E-OH; N-terminus assumed)
2 | 0.118 | 2.4 | 0.14 | CC(C)C[C@H](NC(=O)[C@H](Cc1c[nH]c2ccccc12)NC(=O)[C@H](CCCNC(=N)N)NC(=O)[C@@H](NC(=O)[C@H](Cc1ccccc1)NC(=O)[C@H](CC(=O)O)NC(=O)[C@H](CCCNC(=N)N)NC(=O)[C@H](C)NC(=O)[C@H](CCCNC(=N)N)NC(=O)[C@H](CCCCNC(=O)COCCOCCNC(=O)COCCOCCNC(=O)CC[C@H](NC(=O)CCCCCCCCCCCCCCCCCCC(=O)O)C(=O)O)NC(=O)[C@@H](NC(=O)[C@H](CC(=O)O)NC(=O)[C@H](CC(C)C)NC(=O)[C@](C)(Cc1ccccc1)NC(=O)[C@H](CCCCN)NC(=O)[C@H](CO)NC(=O)[C@@H](NC(=O)[C@H](CC(=O)O)NC(=O)[C@H](CO)NC(=O)[C@@H](NC(=O)[C@H](Cc1ccccc1)NC(=O)[C@@H](NC(=O)CNC(=O)[C@H](CCC(N)=O)NC(=O)C(C)(C)NC(=O)[C@@H](N)Cc1c[nH]cn1)[C@@H](C)O)[C@@H](C)O)C(C)C)[C@@H](C)O)C(C)C)C(=O)N[C@@H](CC(C)C)C(=O)NC(C)(C)C(=O)N[C@@H](CCC(=O)O)C(N)=O [Peptide 511] (H-H[Aib]QGTFTSDVSK[αMeF]LDTK([AEEA-AEEA-γGlu-C20 diacid])RARDFVRWLL[Aib]E-NH2; N-terminus assumed)
3 | 0.159 | 28.7 | 2.31 | CC(C)C[C@H](NC(=O)[C@H](CC(C)C)NC(=O)[C@H](Cc1c[nH]c2ccccc12)NC(=O)[C@H](CCCNC(=N)N)NC(=O)[C@@H](NC(=O)[C@](C)(Cc1ccccc1)NC(=O)[C@H](CC(=O)O)NC(=O)[C@H](CCC(N)=O)NC(=O)[C@H](C)NC(=O)[C@H](CCCNC(=N)N)NC(=O)[C@H](CCCCNC(=O)COCCOCCNC(=O)COCCOCCNC(=O)CC[C@H](NC(=O)CCCCCCCCCCCCCCCCC(=O)O)C(=O)O)NC(=O)[C@@H](NC(=O)[C@H](CC(=O)O)NC(=O)[C@H](CC(C)C)NC(=O)[C@](C)(Cc1ccccc1)NC(=O)[C@H](CCCCN)NC(=O)[C@H](CO)NC(=O)[C@@H](NC(=O)[C@H](CC(=O)O)NC(=O)[C@H](CO)NC(=O)[C@@H](NC(=O)[C@](C)(Cc1ccccc1)NC(=O)[C@@H](NC(=O)CNC(=O)[C@H](CCC(N)=O)NC(=O)C(C)(C)NC(=O)[C@@H](N)Cc1c[nH]cn1)[C@@H](C)O)[C@@H](C)O)C(C)C)[C@@H](C)O)C(C)C)C(=O)N[C@@H](C)C(=O)NC(C)(C)C(=O)NCC(N)=O [Peptide 512] (H-H[Aib]QGT[αMeF]TSDVSK[αMeF]LDTK([AEEA-AEEA-γGlu-C18 diacid])RAQD[αMeF]VRWLLA[Aib]G-NH2; N-terminus assumed)
4 | 0.0938 | 28.3 | 1.34 | CC(C)C[C@H](NC(=O)[C@H](CC(C)C)NC(=O)[C@H](Cc1c[nH]c2ccccc12)NC(=O)[C@H](CCC(N)=O)NC(=O)[C@@H](NC(=O)[C@](C)(Cc1ccccc1)NC(=O)[C@H](CC(=O)O)NC(=O)[C@H](CCCNC(=N)N)NC(=O)[C@H](C)NC(=O)[C@H](CCCNC(=N)N)NC(=O)[C@H](CCCCNC(=O)COCCOCCNC(=O)COCCOCCNC(=O)CC[C@H](NC(=O)CCCCCCCCCCCCCCCCC(=O)O)C(=O)O)NC(=O)[C@@H](NC(=O)[C@H](CC(=O)O)NC(=O)[C@H](CC(C)C)NC(=O)[C@](C)(Cc1ccccc1)NC(=O)[C@H](CCCCN)NC(=O)[C@H](CO)NC(=O)[C@@H](NC(=O)[C@H](CC(=O)O)NC(=O)[C@H](CO)NC(=O)[C@@H](NC(=O)[C@](C)(Cc1ccccc1)NC(=O)[C@@H](NC(=O)CNC(=O)[C@H](CCC(N)=O)NC(=O)C(C)(C)NC(=O)[C@@H](N)Cc1c[nH]cn1)[C@@H](C)O)[C@@H](C)O)C(C)C)[C@@H](C)O)C(C)C)C(=O)N[C@@H](C)C(=O)NC(C)(C)C(=O)NCC(N)=O [Peptide 513] (H-H[Aib]QGT[αMeF]TSDVSK[αMeF]LDTK([AEEA-AEEA-γGlu-C18 diacid])RARD[αMeF]VQWLLA[Aib]G-NH2)
5 | 0.0767 | 35.4 | 1.37 | CC(C)C[C@H](NC(=O)[C@H](Cc1c[nH]c2ccccc12)NC(=O)[C@H](CCC(N)=O)NC(=O)[C@@H](NC(=O)[C@H](Cc1ccccc1)NC(=O)[C@H](CC(=O)O)NC(=O)[C@H](CCCNC(=N)N)NC(=O)[C@H](C)NC(=O)[C@H](C)NC(=O)[C@H](CCCCNC(=O)COCCOCCNC(=O)COCCOCCNC(=O)CC[C@H](NC(=O)CCCCCCCCCCCCCCCCC(=O)O)C(=O)O)NC(=O)[C@@H](NC(=O)[C@H](CC(=O)O)NC(=O)[C@H](CC(C)C)NC(=O)[C@](C)(Cc1ccccc1)NC(=O)[C@H](CCCCN)NC(=O)[C@H](CO)NC(=O)[C@@H](NC(=O)[C@H](CC(=O)O)NC(=O)[C@H](CO)NC(=O)[C@@H](NC(=O)[C@H](Cc1ccccc1)NC(=O)[C@@H](NC(=O)CNC(=O)[C@H](CCC(N)=O)NC(=O)C(C)(C)NC(=O)[C@@H](N)Cc1c[nH]cn1)[C@@H](C)O)[C@@H](C)O)C(C)C)[C@@H](C)O)C(C)C)C(=O)N[C@@H](CC(C)C)C(=O)N[C@@H](CCC(=O)O)C(=O)NC(C)(C)C(=O)NCC(N)=O [Peptide 514] (H-H[Aib]QGTFTSDVSK[αMeF]LDTK([AEEA-AEEA-γGlu-C18 diacid])AARDFVQWLLE[Aib]G-NH2; N-terminus assumed)
6 | 0.297 | 17.7 | 2.66 | CC(C)C[C@H](NC(=O)[C@H](Cc1c[nH]c2ccccc12)NC(=O)[C@H](CCC(N)=O)NC(=O)[C@@H](NC(=O)[C@H](Cc1ccccc1)NC(=O)[C@H](CC(=O)O)NC(=O)[C@H](CCCNC(=N)N)NC(=O)[C@H](C)NC(=O)[C@H](C)NC(=O)[C@H](CCCCNC(=O)COCCOCCNC(=O)COCCOCCNC(=O)CC[C@H](NC(=O)CCCCCCCCCCCCCCCCCCC(=O)O)C(=O)O)NC(=O)[C@@H](NC(=O)[C@H](CC(=O)O)NC(=O)[C@H](CC(C)C)NC(=O)[C@](C)(Cc1ccccc1)NC(=O)[C@H](CCCCN)NC(=O)[C@H](CO)NC(=O)[C@@H](NC(=O)[C@H](CC(=O)O)NC(=O)[C@H](CO)NC(=O)[C@@H](NC(=O)[C@H](Cc1ccccc1)NC(=O)[C@@H](NC(=O)CNC(=O)[C@H](CCC(N)=O)NC(=O)C(C)(C)NC(=O)[C@@H](N)Cc1c[nH]cn1)[C@@H](C)O)[C@@H](C)O)C(C)C)[C@@H](C)O)C(C)C)C(=O)N[C@@H](CC(C)C)C(=O)N[C@@H](CCC(=O)O)C(=O)NC(C)(C)C(=O)NCC(N)=O [Peptide 515] (H-H[Aib]QGTFTSDVSK[αMeF]LDTK([AEEA-AEEA-γGlu-C20 diacid])AARDFVQWLLE[Aib]G-NH2; N-terminus assumed)
7 | 0.137 | 11.3 | 0.785 | CC(C)C[C@H](NC(=O)[C@H](CC(C)C)NC(=O)[C@H](Cc1c[nH]c2ccccc12)NC(=O)[C@H](CCCNC(=N)N)NC(=O)[C@@H](NC(=O)[C@H](Cc1ccccc1)NC(=O)[C@H](CC(=O)O)NC(=O)[C@H](CCC(N)=O)NC(=O)[C@H](C)NC(=O)[C@H](CCCNC(=N)N)NC(=O)[C@H](CCCCNC(=O)COCCOCCNC(=O)COCCOCCNC(=O)CC[C@H](NC(=O)CCCCCCCCCCCCCCCCCCC(=O)O)C(=O)O)NC(=O)[C@H](CO)NC(=O)[C@H](CCC(=O)O)NC(=O)[C@H](CC(C)C)NC(=O)[C@](C)(Cc1ccccc1)NC(=O)[C@H](CCCCN)NC(=O)[C@H](CO)NC(=O)[C@@H](NC(=O)[C@H](CC(=O)O)NC(=O)[C@H](CO)NC(=O)[C@@H](NC(=O)[C@H](Cc1ccccc1)NC(=O)[C@@H](NC(=O)CNC(=O)[C@H](CCC(N)=O)NC(=O)C(C)(C)NC(=O)[C@@H](N)Cc1c[nH]cn1)[C@@H](C)O)[C@@H](C)O)C(C)C)C(C)C)C(=O)N[C@@H](C)C(=O)NC(C)(C)C(=O)NCC(N)=O [Peptide 516] (H-H[Aib]QGTFTSDVSK[αMeF]LESK([AEEA-AEEA-γGlu-C20 diacid])RAQDFVRWLLA[Aib]G-NH2; N-terminus assumed)
